The record followed here is patent publication US10316028B2, “Orexin receptor antagonists” (Heptares Therapeutics Limited, priority 2012, dated 2019).

The test concerns the target T1, human Orexin-2 receptor (Homo sapiens, UniProt O43614).
T1 construct: expressed in transfected cells; host or cells: HEK293 cells (transient transfection, Genejuice); membranes
T1 sequence (O43614 1-444): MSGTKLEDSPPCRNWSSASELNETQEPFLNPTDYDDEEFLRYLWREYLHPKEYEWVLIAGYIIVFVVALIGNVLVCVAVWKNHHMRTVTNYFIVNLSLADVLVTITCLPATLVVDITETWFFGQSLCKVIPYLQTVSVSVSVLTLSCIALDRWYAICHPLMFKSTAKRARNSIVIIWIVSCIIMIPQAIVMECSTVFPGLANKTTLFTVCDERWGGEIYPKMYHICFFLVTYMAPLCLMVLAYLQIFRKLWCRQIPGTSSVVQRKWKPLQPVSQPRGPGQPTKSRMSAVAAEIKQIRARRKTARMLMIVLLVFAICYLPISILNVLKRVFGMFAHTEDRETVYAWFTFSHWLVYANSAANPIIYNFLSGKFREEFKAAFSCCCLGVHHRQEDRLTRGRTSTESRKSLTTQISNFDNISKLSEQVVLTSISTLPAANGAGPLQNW
Briefly: 3H-EMPA radioligand binding assay. The settings on record: 3H-EMPA displacement, membranes of HEK293 cells transfected with human Orexin-2 receptor; KI by Cheng-Prussoff; read-out: OX2 pKi ave (converted). As for the experimental part: cDNA encoding the human Orexin-2 receptor was transfected into HEK293 cells using the transfection reagent Genejuice (Novagen). Forty-eight hours after transfection, cells were harvested and washed twice with ice cold phosphate-buffered saline. The pellet was resuspended in ice-cold buffer containing 20 mM Tris-HCl, pH 7.4, 1 mM EDTA and homogenised with an Ultraturax for 30 s at maximum speed. After centrifugation at 48,000 g for 30 min at 4° C., the pellet was resuspended and spun again. The final pellet was resuspended and frozen at −80° C. before use. Protein concentration was determined using the BCA protein assay method.
^3H-EMPA Radioligand Binding Assay
At the end of the incubation, membranes were filtered onto a unifilter, a 96-well white microplate with bonded GF/B filter pre-incubated with 0.5% polyethylenimine, with a Tomtec cell harvester and washed 4 times with distilled water. […] Radioactivity on the filter was counted (1 min) on a microbeta counter after addition of 50 µL of scintillation fluid. […] IC50 values were derived from the inhibition curve and the equilibrium dissociation constant (KI) values were calculated using the Cheng-Prussoff equation.
For `COc1ccc(N2C(=O)N(Cc3c(F)cc(F)cc3F)c3ccccc3S2(=O)=O)nc1OC` [Example 147, 2-(5,6-Dimethoxypyridin-2-yl)-4-(2,4,6-trifluorobenzyl)-2H-1,2,4-benzothiadiazin-3(4H)-one 1,1-dioxide], the Ki is 1.58 nM.
With `COc1cc(F)c(CN2C(=O)N(c3cc(C)cc(C)n3)S(=O)(=O)c3cccnc32)c(F)c1` [Example 174, 4-(2,6-Difluoro-4-methoxybenzyl)-2-(4,6-dimethylpyridin-2-yl)-2H-pyrido[2,3-e][1,2,4]thiadiazin-3(4H)-one 1,1-dioxide], the Ki was 7.24 nM.
For the compound `O=C1N(Cc2c(F)cccc2F)c2ccccc2S(=O)(=O)N1c1cccc(SC(F)(F)F)c1` [Example 75, 4-(2,6-Difluorobenzyl)-2-{3-[(trifluoromethyl)sulfanyl]phenyl}-2H-1,2,4-benzothiadiazin-3(4H)-one 1,1-dioxide], the Ki is 8.32 nM.
The figure for `Cc1ccc(N2C(=O)N(Cc3c(F)cccc3Cl)c3ccccc3S2(=O)=O)cn1` [Example 142, 4-(2-Chloro-6-fluorobenzyl)-2-(6-methylpyridin-3-yl)-2H-1,2,4-benzothiadiazin-3(4H)-one 1,1-dioxide] is 29.5 nM; for `COc1cc(F)c(CN2C(=O)N(c3ccc(OC)c(OC)c3)S(=O)(=O)c3cccnc32)c(F)c1` [Example 95, 4-(2,6-Difluoro-4-methoxybenzyl)-2-(3,4-dimethoxyphenyl)-2H-pyrido[2,3-e][1,2,4]thiadiazin-3(4H)-one 1,1-dioxide] it is 0.129 nM; for `COc1cc(F)c(CN2C(=O)N(c3ccc(OC)c(OC)n3)S(=O)(=O)c3ccccc32)c(F)c1` [Example 153, 4-(2,6-Difluoro-4-methoxybenzyl)-2-(5,6-dimethoxypyridin-2-yl)-2H-1,2,4-benzothiadiazin-3(4H)-one 1,1-dioxide] it is 0.224 nM.
In the case of `Cc1cc(N2C(=O)N(Cc3c(F)cccc3Cl)c3ccccc3S2(=O)=O)cc(C)c1O` [Example 82, 4-(2-Chloro-6-fluorobenzyl)-2-(4-hydroxy-3,5-dimethylphenyl)-2H-1,2,4-benzothiadiazin-3(4H)-one 1,1-dioxide], the Ki is 3.31 nM.
The figure for `Cc1ccc(N2C(=O)N(Cc3c(F)cccc3Cl)c3ccccc3S2(=O)=O)cc1` [Example 28, 4-(2-chloro-6-fluorobenzyl)-2-(4-methylphenyl)-2H-1,2,4-benzothiadiazin-3(4H)-one 1,1-dioxide] is 5.62 nM; for `O=C1N(Cc2c(F)cccc2Cl)c2ccccc2S(=O)(=O)N1CC1CCCCC1` [Example 64, 4-(2-Chloro-6-fluorobenzyl)-2-(cyclohexylmethyl)-2H-1,2,4-benzothiadiazin-3(4H)-one 1,1-dioxide] it is 661 nM; for `O=C1N(Cc2ccccc2Cl)c2ccccc2S(=O)(=O)N1Cc1ccccc1` [Example 58, 2-benzyl-4-(2-chlorobenzyl)-2H-1,2,4-benzothiadiazin-3(4H)-one 1,1-dioxide] it is 933 nM.
Turning to `COc1cc(OC)cc(N2C(=O)N(Cc3cccc(C)c3)c3ccccc3S2(=O)=O)c1` [Example 6, 2-(3,5-dimethoxyphenyl)-4-(3-methylbenzyl)-2H-1,2,4-benzothiadiazin-3(4H)-one 1,1-dioxide], the Ki is 468 nM.
As for `COc1ccc(CN2C(=O)N(c3ccc(OC)c(OC)c3)S(=O)(=O)c3ccccc32)cc1F` [Example 2, 2-(3,4-dimethoxyphenyl)-4-(3-fluoro-4-methoxybenzyl)-2H-1,2,4-benzothiadiazin-3(4H)-one 1,1-dioxide], the Ki was 141 nM.
Turning to `COc1cc(N2C(=O)N(Cc3c(F)cc(F)cc3Cl)c3ccccc3S2(=O)=O)ccn1` [Example 141, 4-(2-Chloro-4,6-difluorobenzyl)-2-(2-methoxypyridin-4-yl)-2H-1,2,4-benzothiadiazin-3(4H)-one 1,1-dioxide], the Ki was 6.92 nM.
As to `COc1ccc(N2C(=O)N(Cc3ccccc3)c3ccccc3S2(=O)=O)cc1OC` [Example 5, 4-benzyl-2-(3,4-dimethoxyphenyl)-2H-1,2,4-benzothiadiazin-3(4H)-one 1,1-dioxide], the Ki was 89.1 nM.
`Cc1cc(C)cc(N2C(=O)N(Cc3c(F)cc(F)cc3F)c3ncccc3S2(=O)=O)c1` [Example 103, 2-(3,5-Dimethylphenyl)-4-(2,4,6-trifluorobenzyl)-2H-pyrido[2,3-e][1,2,4]thiadiazin-3(4H)-one 1,1-dioxide]: the Ki was 4.27 nM.
For `COc1cc(OC)cc(N2C(=O)N(Cc3c(Cl)cccc3Cl)c3ccccc3S2(=O)=O)c1` [Example 70, 4-(2,6-Dichlorobenzyl)-2-(3,5-dimethoxyphenyl)-2H-1,2,4-benzothiadiazin-3(4H)-one 1,1-dioxide], the Ki is 2 nM.
The figure for `COc1ccc(N2C(=O)N(Cc3c(C)ccnc3C)c3ccccc3S2(=O)=O)cc1OC` [Example 84, 2-(3,4-Dimethoxyphenyl)-4-[(2,4-dimethylpyridin-3-yl)methyl]-2H-1,2,4-benzothiadiazin-3(4H)-one 1,1-dioxide] is 490 nM.
Regarding `Cc1cc(N2C(=O)N(Cc3c(F)cc(F)cc3F)c3ccccc3S2(=O)=O)cc(C)c1O` [Example 114, 2-(4-Hydroxy-3,5-dimethylphenyl)-4-(2,4,6-trifluorobenzyl)-2H-1,2,4-benzothiadiazin-3(4H)-one 1,1-dioxide], the Ki is 12.9 nM.
Take `COc1ccc(N2C(=O)N(Cc3c(F)cc(F)cc3OC)c3ccccc3S2(=O)=O)cc1OC` [Example 104, 4-(2,4-Difluoro-6-methoxybenzyl)-2-(3,4-dimethoxyphenyl)-2H-1,2,4-benzothiadiazin-3(4H)-one 1,1-dioxide]: the Ki was 7.08 nM.
As for `COc1cccc(N2C(=O)N(Cc3c(F)cc(F)cc3F)c3ccccc3S2(=O)=O)n1` [Example 144, 2-(6-Methoxypyridin-2-yl)-4-(2,4,6-trifluorobenzyl)-2H-1,2,4-benzothiadiazin-3(4H)-one 1,1-dioxide], the figure is 50.1 nM; as for `Cn1ccnc1CN1C(=O)N(Cc2c(F)cccc2F)c2ccccc2S1(=O)=O` [Example 131, 4-(2,6-Difluorobenzyl)-2-[(1-methyl-1H-imidazol-2-yl)methyl]-2H-1,2,4-benzothiadiazin-3(4H)-one 1,1-dioxide], 295 nM.
`CSc1cccc(N2C(=O)N(Cc3ccccc3F)c3ccccc3S2(=O)=O)c1` [Example 23, 4-(2-fluorobenzyl)-2-[3-(methylsulfanyl)phenyl]-2H-1,2,4-benzothiadiazin-3(4H)-one 1,1-dioxide]: the Ki was 20.9 nM.
On to `CC(C)c1ccc(N2C(=O)N(Cc3c(F)cccc3Cl)c3ccccc3S2(=O)=O)cc1` [Example 48, 4-(2-chloro-6-fluorobenzyl)-2-[4-(propan-2-yl)phenyl]-2H-1,2,4-benzothiadiazin-3(4H)-one 1,1-dioxide], for which the Ki is 3.72 nM.
`O=C1N(Cc2c(F)cc(F)cc2F)c2ccccc2S(=O)(=O)N1c1ccc2ncsc2c1` [Example 124, 2-(1,3-Benzothiazol-6-yl)-4-(2,4,6-trifluorobenzyl)-2H-1,2,4-benzothiadiazin-3(4H)-one 1,1-dioxide]: the Ki is 5.01 nM.
Consider `O=C1N(Cc2c(F)cccc2Cl)c2ccccc2S(=O)(=O)N1c1cc(F)ccc1F` [Example 46, 4-(2-chloro-6-fluorobenzyl)-2-(2,5-difluorophenyl)-2H-1,2,4-benzothiadiazin-3(4H)-one 1,1-dioxide], for which the Ki was 63.1 nM.
As for `CCOc1ccc(N2C(=O)N(Cc3c(F)cccc3Cl)c3ccccc3S2(=O)=O)cc1` [Example 29, 4-(2-chloro-6-fluorobenzyl)-2-(4-ethoxyphenyl)-2H-1,2,4-benzothiadiazin-3(4H)-one 1,1-dioxide], the Ki is 31.6 nM.
In the case of `COc1ccc(N2C(=O)N(Cc3ccc(Cl)cc3F)c3ccncc3S2(=O)=O)cc1OC` [Example 92, 4-(4-Chloro-2-fluorobenzyl)-2-(3,4-dimethoxyphenyl)-2H-pyrido[4,3-e][1,2,4]thiadiazin-3(4H)-one 1,1-dioxide], the Ki was 741 nM.
As for `CSc1cncc(N2C(=O)N(Cc3c(F)cc(F)cc3F)c3ccccc3S2(=O)=O)c1` [Example 152, 2-[5-(Methylsulfanyl)pyridin-3-yl]-4-(2,4,6-trifluorobenzyl)-2H-1,2,4-benzothiadiazin-3(4H)-one 1,1-dioxide], the figure is 5.89 nM.
Regarding `COc1cc(F)c(CN2C(=O)N(c3ccc(OC)nc3)S(=O)(=O)c3ccccc32)c(F)c1` [Example 136, 4-(2,6-Difluoro-4-methoxybenzyl)-2-(6-methoxypyridin-3-yl)-2H-1,2,4-benzothiadiazin-3(4H)-one 1,1-dioxide], the Ki was 10.7 nM.
